Experimental data as given in patent publication US20220175749A1, “LANABECESTAT FOR WEIGHT LOSS” (ASTRAZENECA AB, priority 2019, published 2022).
Marks after values point to notes of the source that are not given here.

Legend:
Format in all cases: in vivo, human
[1] = Phase 2/3 104-week placebo-controlled study of lanabecestat in early Alzheimer's Disease: effect on weight; settings: for Weight decrease ≥ 7%, (%): placebo 12.7; for mean weight change: completers at week 104, placebo 0.0 kg
From the text: A Phase 2/3, multicenter, randomized, 104-week, double-blind, placebo-controlled, global study of lanabecestat in patients with early Alzheimer's Disease (AD), defined as the continuum of patients with mild cognitive impairment (MCI) due to AD and patients diagnosed with mild AD dementia.
Lanabecestat, i.e., the camsylate salt of (1r,1′R,4R)-4-methoxy-5″-methyl-6′-[5-(prop-1-yn-1-yl)pyridin-3-yl]-3′H-dispiro[cyclohexane-1,2′-indene-1′,2″-imidazol]-4″-amine
was provided orally once daily for 104 weeks at 20 mg or 50 mg and compared to the results for once daily administration of placebo.
The key inclusion criteria for the study were as follows: • Population aged 55 to 85 years old; • Mild AD: meet National Institute on Aging and the Alzheimer's Association (NIA-AA) criteria with a Clinical Dementia Rating Scale-Global Score (CDR-GS) of 0.5 or 1; • MCI: meet NIA-AA criteria with a CDR-GS of 0.5; • CDR memory box score ≥0.5; • Mini-Mental State Examination (MMSE)≥20; • Repeatable Battery for the Assessment of Neuropsychological Status Delayed Memory Index (RBANS DMI)≤85; • Study partner; • Amyloid positive • Cerebrospinal fluid; or • Florbetapir amyloid Positron Emission Tomography (PET); or • Historical amyloid PET.
The key exclusion criteria for the study were as follows: • Unstable medical conditions or medications; • Magnetic Resonance Imaging (MRI): >5 microhemorrhages, significant cerebrovascular pathology, or other pathologies; • QT interval adjusted for heart rate using the Fridericia formula (QTcF) >470 ms; • History of vitiligo and/or current evidence of post-inflammatory hypo-pigmentation or exposure to depigmenting agents.
Comparing completers at week 104, the mean weight change was for 0.0 kg for placebo (n=202), −0.8 kg for lanabecestat 20 mg (n=187), and −1.9 kg for lanabecestat 50 mg (n=178). The overall p-value and pairwise p-value compared to placebo was ≤0.05 (nominal p-value, not adjusted for multiplicity).

[2] = Phase 3 study of lanabecestat in mild AD dementia, 78-week placebo-controlled period: effect on weight; settings: for Weight decrease ≥ 7%, (%): placebo 6.3; for mean weight change: completers at week 78, placebo −0.2 kg
Experimental: A Phase 3, multicenter, randomized, double-blind, global study of lanabecestat in patients with mild AD dementia that included a 78-week placebo-controlled period, for which results are provided below.
Lanabecestat was provided orally once daily for 78 weeks at 20 mg or 50 mg and compared to the results for once daily administration of placebo.
The key inclusion criteria for the study were as follows: • Population aged 55 to 85 years; • Mild AD: meet National Institute on Aging and the Alzheimer's Association (NIA-AA) criteria with a Clinical Dementia Rating Scale-Global Score (CDR-GS) of 0.5 or 1, with memory box score ≥0.5; • Mini-Mental State Examination (MMSE) score 20-26; • Study partner; • Amyloid positive • Cerebrospinal fluid; or • Florbetapir amyloid Positron Emission Tomography (PET); or • Historical amyloid PET.
The key exclusion criteria for the study were: • Unstable medical conditions or medications; • Magnetic resonance imaging (MRI): >5 microhemorrhages, significant cerebrovascular pathology, or other pathologies; • QT interval adjusted for heart rate using the Fridericia formula (QTcF) >470 ms; • History of vitiligo and/or current evidence of post-inflammatory hypo-pigmentation.
Comparing completers at week 78, the mean weight change was −0.2 kg for placebo (n=24), −1.4 kg for lanabecestat 20 mg (n=27), and −2.9 kg for lanabecestat 50 mg (n=20). The overall p-value and pairwise p-value compared to placebo was ≤0.05 (nominal p-value, not adjusted for multiplicity).

[3] = Combined analysis of the two studies of Examples 1 and 2: weight change from baseline and weight decrease over time; settings: for mean (SD) kg change from baseline: 52 weeks
Experimental: A further analysis of the subjects in the two studies described in Examples 1 and 2 above was performed, for which results are provided below.
FIGS. 1-3 show weight change from baseline over the course of the 104 week studies. […] At 52 weeks, the mean (SD) kg change from baseline in the Lanabecestat 50 mg group versus placebo was −1.5 kg (4.4) vs +0.1 kg (3.4).
At 52 weeks, the mean (SD) kg change from baseline in the Lanabecestat 50 mg group versus placebo was −0.65 kg (3.4) vs +0.3 kg (3.3).
Table 10 provides data for the weight decrease over time for the population with a baseline BMI>25 kg/m^2 versus the overall population, showing that there is a greater percent decrease in weight in the higher BMI group versus the overall population.

[4] = week 26, all patients, L20 (20 mg), N=1080
[5] = week 26, all patients, L50 (50 mg), N=1047
[6] = week 26, patients with baseline BMI > 25, L20 (20 mg), N=532
[7] = week 26, patients with baseline BMI > 25, L50 (50 mg), N=494
[8] = week 52, all patients, L20 (20 mg), N=726
[9] = week 52, all patients, L50 (50 mg), N=716
[10] = week 52, patients with baseline BMI > 25, L20 (20 mg), N=348
[11] = week 52, patients with baseline BMI > 25, L50 (50 mg), N=348
[12] = week 78, all patients, L20 (20 mg), N=366
[13] = week 78, all patients, L50 (50 mg), N=347
[14] = week 78, patients with baseline BMI > 25, L20 (20 mg), N=170
[15] = week 78, patients with baseline BMI > 25, L50 (50 mg), N=161
[16] = week 104, all patients, L20 (20 mg), N=187
[17] = week 104, all patients, L50 (50 mg), N=178
[18] = week 104, patients with baseline BMI > 25, L20 (20 mg), N=89
[19] = week 104, patients with baseline BMI > 25, L50 (50 mg), N=77

## CC#Cc1cncc(-c2ccc3c(c2)[C@@]2(N=C(C)C(N)=N2)[C@]2(CC[C@H](OC)CC2)C3)c1 [Lanabecestat, (1r,1′R,4R)-4-methoxy-5″-methyl-6′-[5-(prop-1-yn-1-yl)pyridin-3-yl]-3′H-dispiro[cyclohexane-1,2′-indene-1′,2″-imidazol]-4″-amine]
[1]; 20 mg, N=728
  Weight decrease ≥ 7%, (%): (21.2)* %
[1]; 50 mg, N=723
  Weight decrease ≥ 7%, (%): (24.9)* %
[1]; lanabecestat 20 mg once daily oral, n=187
  mean weight change: -0.8 kg
[1]; lanabecestat 50 mg once daily oral, n=178
  mean weight change: -1.9 kg
[2]; 20 mg, N=570
  Weight decrease ≥ 7%, (%): (9.5) %
[2]; 50 mg, N=545
  Weight decrease ≥ 7%, (%): (14.5)* %
[2]; lanabecestat 20 mg once daily oral, n=27
  mean weight change: -1.4 kg
[2]; lanabecestat 50 mg once daily oral, n=20
  mean weight change: -2.9 kg
[3]; 50 mg, at 2 years
  weight loss of ≥5% and ≥10% versus placebo: statistically significant weight loss
[3]; baseline BMI>25 kg/m^2, 50 mg, SD 5.2, placebo −0.4 kg (3.6)
  mean (SD) kg change from baseline: -2.5 kg
[3]; baseline BMI≤25 kg/m^2, 50 mg, SD 3.4, placebo +0.3 kg (3.3)
  mean (SD) kg change from baseline: -0.65 kg
[3]; overall population, 50 mg, SD 4.4, placebo +0.1 kg (3.4)
  mean (SD) kg change from baseline: -1.5 kg
[3]; [4]
  Weight loss ≥5%, % of patients: (14%)***
  Weight loss ≥5%, n patients: 147
  Weight loss ≥10%, % of patients: 1%
  Weight loss ≥10%, n patients: 15
  Weight loss ≥15%, % of patients: 0.3%
  Weight loss ≥15%, n patients: 3
[3]; [5]
  Weight loss ≥5%, % of patients: (16%)***
  Weight loss ≥5%, n patients: 172
  Weight loss ≥10%, % of patients: (3%)**
  Weight loss ≥10%, n patients: 28
  Weight loss ≥15%, % of patients: 0.5%
  Weight loss ≥15%, n patients: 5
[3]; [6]
  Weight loss ≥5%, % of patients: (16%)***
  Weight loss ≥5%, n patients: 87
  Weight loss ≥10%, % of patients: 2%
  Weight loss ≥10%, n patients: 11
  Weight loss ≥15%, % of patients: 0.6%
  Weight loss ≥15%, n patients: 3
[3]; [7]
  Weight loss ≥5%, % of patients: (18%)***
  Weight loss ≥5%, n patients: 90
  Weight loss ≥10%, % of patients: 4%
  Weight loss ≥10%, n patients: 20
  Weight loss ≥15%, % of patients: 1%
  Weight loss ≥15%, n patients: 3
[3]; [8]
  Weight loss ≥5%, % of patients: (19%)***
  Weight loss ≥5%, n patients: 139
  Weight loss ≥10%, % of patients: 5%
  Weight loss ≥10%, n patients: 35
  Weight loss ≥15%, % of patients: 1%
  Weight loss ≥15%, n patients: 8
[3]; [9]
  Weight loss ≥5%, % of patients: (25%)***
  Weight loss ≥5%, n patients: 180
  Weight loss ≥10%, % of patients: (5%)**
  Weight loss ≥10%, n patients: 39
  Weight loss ≥15%, % of patients: 1%
  Weight loss ≥15%, n patients: 8
[3]; [10]
  Weight loss ≥5%, % of patients: (24%)***
  Weight loss ≥5%, n patients: 82
  Weight loss ≥10%, % of patients: 7%
  Weight loss ≥10%, n patients: 26
  Weight loss ≥15%, % of patients: 2%
  Weight loss ≥15%, n patients: 8
[3]; [11]
  Weight loss ≥5%, n patients: 104
  Weight loss ≥10%, % of patients: 7%
  Weight loss ≥10%, n patients: 26
  Weight loss ≥15%, % of patients: 2%
  Weight loss ≥15%, n patients: 6
[3]; [12]
  Weight loss ≥5%, % of patients: (23%)**
  Weight loss ≥5%, n patients: 85
  Weight loss ≥10%, % of patients: 7%
  Weight loss ≥10%, n patients: 26
  Weight loss ≥15%, % of patients: 2%
  Weight loss ≥15%, n patients: 9
[3]; [13]
  Weight loss ≥5%, % of patients: (31%)***
  Weight loss ≥5%, n patients: 107
  Weight loss ≥10%, % of patients: (10%)***
  Weight loss ≥10%, n patients: 36
  Weight loss ≥15%, % of patients: 2%
  Weight loss ≥15%, n patients: 7
[3]; [14]
  Weight loss ≥5%, % of patients: (31%)*
  Weight loss ≥5%, n patients: 52
  Weight loss ≥10%, % of patients: 10%
  Weight loss ≥10%, n patients: 17
  Weight loss ≥15%, % of patients: 5%
  Weight loss ≥15%, n patients: 9
[3]; [15]
  Weight loss ≥5%, % of patients: (35%)**
  Weight loss ≥5%, n patients: 57
  Weight loss ≥10%, % of patients: 12%
  Weight loss ≥10%, n patients: 20
  Weight loss ≥15%, % of patients: 3%
  Weight loss ≥15%, n patients: 5
[3]; [16]
  Weight loss ≥5%, % of patients: 26%
  Weight loss ≥5%, n patients: 48
  Weight loss ≥10%, % of patients: 9%
  Weight loss ≥10%, n patients: 16
  Weight loss ≥15%, % of patients: 2%
  Weight loss ≥15%, n patients: 4
[3]; [17]
  Weight loss ≥5%, % of patients: (38%)***
  Weight loss ≥5%, n patients: 67
  Weight loss ≥10%, % of patients: (17%)***
  Weight loss ≥10%, n patients: 31
  Weight loss ≥15%, % of patients: 3%
  Weight loss ≥15%, n patients: 6
[3]; [18]
  Weight loss ≥5%, % of patients: 30%
  Weight loss ≥5%, n patients: 27
  Weight loss ≥10%, % of patients: 15%
  Weight loss ≥10%, n patients: 13
  Weight loss ≥15%, % of patients: 4 (4%)
  Weight loss ≥15%, n patients: 4 (4%)
[3]; [19]
  Weight loss ≥5%, % of patients: (42%)**
  Weight loss ≥5%, n patients: 32
  Weight loss ≥10%, % of patients: 19%
  Weight loss ≥15%, % of patients: 4%
  Weight loss ≥15%, n patients: 3
